Measured values published in ChEMBL document CHEMBL4312034, “Virtual screening-driven discovery of dual 5-HT6/5-HT2A receptor ligands with pro-cognitive properties” (Eur J Med Chem, 2020).
Active and inactive are the calls of the source. The rule behind the calls is not given here.

Legend:
[1] = target: T1, 5-hydroxytryptamine receptor 6 (Homo sapiens, UniProt P50406); experiment: Displacement of [3H]-LSD from human 5-HT6R expressed in HEK293 cells after 1 hr by microbeta plate reader analysis; type: cell-based
T1 sequence (P50406 whole entry): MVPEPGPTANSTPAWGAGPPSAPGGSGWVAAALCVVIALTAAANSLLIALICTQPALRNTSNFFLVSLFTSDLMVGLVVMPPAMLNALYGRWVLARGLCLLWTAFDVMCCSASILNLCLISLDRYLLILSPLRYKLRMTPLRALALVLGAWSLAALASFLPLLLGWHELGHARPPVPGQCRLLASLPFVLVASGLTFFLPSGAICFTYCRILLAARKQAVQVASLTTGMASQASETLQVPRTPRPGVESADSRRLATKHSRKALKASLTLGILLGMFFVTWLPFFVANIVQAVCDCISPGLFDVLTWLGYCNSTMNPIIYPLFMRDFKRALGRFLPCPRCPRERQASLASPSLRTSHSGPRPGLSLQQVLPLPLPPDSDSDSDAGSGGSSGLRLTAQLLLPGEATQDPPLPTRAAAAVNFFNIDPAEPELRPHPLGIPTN

[2] = target: T1, 5-hydroxytryptamine receptor 6; experiment: Binding affinity to 5-HT6R (unknown origin) assessed as inhibitory constant
[3] = target: 5-hydroxytryptamine receptor 2A (Homo sapiens, UniProt P28223); experiment: Binding affinity to human 5-HT2AR expressed in HEK293 cells by competitive binding assay; type: cell-based
Chain of 5-hydroxytryptamine receptor 2A (P28223 whole entry): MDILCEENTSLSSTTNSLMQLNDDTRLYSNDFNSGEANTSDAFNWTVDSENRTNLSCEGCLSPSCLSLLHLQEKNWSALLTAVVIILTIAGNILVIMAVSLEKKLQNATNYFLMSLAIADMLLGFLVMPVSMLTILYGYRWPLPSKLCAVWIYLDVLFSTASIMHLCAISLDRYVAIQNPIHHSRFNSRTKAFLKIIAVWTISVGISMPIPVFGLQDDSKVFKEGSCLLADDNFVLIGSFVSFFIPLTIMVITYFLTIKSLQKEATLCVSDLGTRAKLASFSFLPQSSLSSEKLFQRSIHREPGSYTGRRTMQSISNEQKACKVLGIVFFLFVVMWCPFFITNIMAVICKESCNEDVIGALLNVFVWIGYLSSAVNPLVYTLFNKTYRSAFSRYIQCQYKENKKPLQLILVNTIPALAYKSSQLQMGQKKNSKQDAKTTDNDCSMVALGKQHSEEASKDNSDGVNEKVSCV

[4] = target: T2, 5-hydroxytryptamine receptor 1A (Homo sapiens, UniProt P08908); experiment: Displacement of [3H]-8-OH-DPAT from human 5-HT1A receptor expressed in HEK293 cells after 1 hr by microbeta plate reader analysis; type: cell-based
T2 sequence (P08908 whole entry): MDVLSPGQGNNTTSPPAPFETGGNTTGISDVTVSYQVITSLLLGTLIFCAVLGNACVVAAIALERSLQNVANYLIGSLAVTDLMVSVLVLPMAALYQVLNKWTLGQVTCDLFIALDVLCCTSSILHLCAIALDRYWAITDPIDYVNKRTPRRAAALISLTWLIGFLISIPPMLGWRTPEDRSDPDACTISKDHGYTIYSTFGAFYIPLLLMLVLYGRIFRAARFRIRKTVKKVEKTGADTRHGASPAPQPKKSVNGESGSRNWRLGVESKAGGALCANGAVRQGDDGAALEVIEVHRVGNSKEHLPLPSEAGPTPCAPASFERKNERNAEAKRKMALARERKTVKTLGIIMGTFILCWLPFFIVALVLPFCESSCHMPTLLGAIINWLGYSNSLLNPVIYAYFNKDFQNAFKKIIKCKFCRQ

[5] = target: 5-hydroxytryptamine receptor 7 (Homo sapiens, UniProt P34969); experiment: Displacement of [3H]-CT from human 5-HT7 receptor expressed in HEK293 cells after 1 hr by microbeta plate reader analysis; type: cell-based
Chain of 5-hydroxytryptamine receptor 7 (P34969 whole entry): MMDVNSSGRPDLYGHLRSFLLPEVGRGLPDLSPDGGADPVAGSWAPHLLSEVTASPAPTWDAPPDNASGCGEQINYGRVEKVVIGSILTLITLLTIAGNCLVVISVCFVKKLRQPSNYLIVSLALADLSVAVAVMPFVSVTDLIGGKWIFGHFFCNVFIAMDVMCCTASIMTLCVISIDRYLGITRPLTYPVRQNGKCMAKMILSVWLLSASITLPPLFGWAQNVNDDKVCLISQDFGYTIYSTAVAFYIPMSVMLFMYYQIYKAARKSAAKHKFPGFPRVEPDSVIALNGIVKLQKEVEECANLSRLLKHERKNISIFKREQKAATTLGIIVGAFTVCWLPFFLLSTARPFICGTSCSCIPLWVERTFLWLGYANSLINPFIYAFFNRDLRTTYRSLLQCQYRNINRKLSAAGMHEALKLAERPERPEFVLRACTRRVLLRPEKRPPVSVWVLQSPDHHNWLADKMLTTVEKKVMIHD

D(2) dopamine receptor = D(2) dopamine receptor (Homo sapiens, UniProt P14416); experiment: Displacement of [3H]-raclopride from human D2R expressed in HEK293 cells after 1 hr by microbeta plate reader analysis; type: cell-based
Chain of D(2) dopamine receptor (P14416 whole entry): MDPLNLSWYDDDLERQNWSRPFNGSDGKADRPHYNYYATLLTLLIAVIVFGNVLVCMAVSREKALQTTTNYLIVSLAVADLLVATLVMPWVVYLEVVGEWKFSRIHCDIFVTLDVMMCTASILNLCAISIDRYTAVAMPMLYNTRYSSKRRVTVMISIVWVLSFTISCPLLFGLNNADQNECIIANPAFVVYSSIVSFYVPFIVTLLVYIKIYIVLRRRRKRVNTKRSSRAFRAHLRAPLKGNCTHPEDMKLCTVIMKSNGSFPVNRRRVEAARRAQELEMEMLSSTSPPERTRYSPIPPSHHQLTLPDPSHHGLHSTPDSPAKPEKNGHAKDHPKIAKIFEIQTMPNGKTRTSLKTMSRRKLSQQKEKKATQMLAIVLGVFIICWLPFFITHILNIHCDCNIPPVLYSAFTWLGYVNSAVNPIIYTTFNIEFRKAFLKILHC

[6] = Half life in rat liver microsomes up to 60 mins by HPLC-LC/MS analysis
Rattus norvegicus = experiment: Reversal of phencyclidine-induced memory impairment in Sprague-Dawley rat at 1 to 3 mg/kg, po for 2 hrs followed by phencyclidine treatment 45 mins prior to testing by novel object recognition test; type: functional, organism-based
in vitro = conditions: rat

c1ccc2c(-c3ccc(CNCCc4c[nH]c5ccccc45)s3)cccc2c1
Ki [1]: 418 nM

Clc1cccc(-c2ccc(CNCCc3c[nH]c4ccccc34)o2)c1
Ki [1]: 185 nM

N=C(NC1=NC2CCCCC2C(=O)N1)N1CCC(Cc2ccccc2)CC1 (centres undefined)
Ki [2]: 21 nM

Fc1ccc2c(CCNCc3cccc(OCC(F)(F)C(F)F)c3)c[nH]c2c1 [IDALOPIRDINE]
Ki [3]: 791 nM
Ki [4]: 3940 nM
Ki [5]: 8640 nM
Ki (D(2) dopamine receptor): 1210 nM
half-life at 1 h ([6]; microsomes): 14 min
Activity (Rattus norvegicus): Active

CCCN(CCc1c[nH]c2ccccc12)Cc1ccc(-c2ccccc2)o1
Ki [1]: 334 nM

Cc1cc(OCCN(C)C)nc(NCc2ccccc2)n1
Ki [2]: 875 nM

COc1ccc2[nH]cc(CCNCc3ccc(-c4ccc(O)cc4)o3)c2c1
Ki [1]: 3 nM
Ki [3]: 41 nM
Ki [4]: 120 nM
Ki [5]: 206 nM
Ki (D(2) dopamine receptor): 220 nM
half-life at 1 h ([6]; liver microsomes): 22 min
microsomal CLint at 1 h (in vitro; liver microsomes): 63.4 µL/min/mg

c1ccc2c(-c3ccc(CNCCc4c[nH]c5ccccc45)o3)cccc2c1
Ki [1]: 201 nM

c1ccc(-c2ccc(CNCCc3c[nH]c4ccccc34)o2)cc1
Ki [1]: 91 nM
Ki [3]: 461 nM
Ki [4]: 125 nM
Ki [5]: 1280 nM
Ki (D(2) dopamine receptor): 676 nM

Oc1c(CN2CCCC2)cc(CSc2ccccc2)c2cccnc12
Ki [2]: 894 nM

COc1ccc(Cc2nc(N3CCNCC3)nc3cccnc23)c(OC)c1
Ki [2]: 58 nM

c1ccc(-c2ccc(CNCCc3c[nH]c4ccccc34)[nH]2)cc1
Ki [1]: 264 nM

CN1CCN(c2nc(NCc3ccccc3)c3c(n2)N(C)NC3)CC1
Ki [2]: 7 nM

Cc1ccc2[nH]cc(CCNCc3ccc(-c4ccc(O)cc4)o3)c2c1
Ki [1]: 5 nM
Ki [3]: 22 nM
Ki [4]: 399 nM
Ki [5]: 51 nM

COc1ccc(-c2ccc(CNCCc3c[nH]c4ccc(OC)cc34)o2)cc1
Ki [1]: 90 nM
Ki [3]: 35 nM
Ki [4]: 334 nM
Ki [5]: 3300 nM
Ki (D(2) dopamine receptor): 1360 nM

COc1ccc2[nH]cc(CCNCc3ccc(-c4ccc(Cl)cc4)o3)c2c1
Ki [1]: 67 nM
Ki [3]: 607 nM
Ki [4]: 218 nM
Ki [5]: 2170 nM
Ki (D(2) dopamine receptor): 571 nM

COc1ccc2[nH]cc(CC(C)NCc3ccc(-c4ccc(O)cc4)o3)c2c1 (centres undefined)
Ki [1]: 345 nM

CC(CSc1nc2ccccc2c(=O)n1-c1ccc(Cl)cc1)N(C)C (centres undefined)
Ki [2]: 20 nM

Oc1ccc(-c2ccc(CNCCc3coc4ccc(F)cc34)o2)cc1
Ki [1]: 522 nM

CN1CCN(c2ccnc(SCc3ccccc3Cl)n2)CC1
Ki [2]: 8880 nM

COc1ccc2[nH]cc(CCNCc3ccc(-c4cn[nH]c4)o3)c2c1
Ki [1]: 121 nM
Ki [3]: 28 nM
Ki [4]: 146 nM
Ki [5]: 1500 nM
Ki (D(2) dopamine receptor): 1730 nM

c1ccc(-c2ccc(CNCCc3c[nH]c4ccccc34)s2)cc1
Ki [1]: 152 nM

Cn1cc(CCNCc2ccc(-c3ccccc3)o2)c2ccccc21
Ki [1]: 303 nM

CN1CCN(c2oc(-c3ccccc3Cl)nc2S(=O)(=O)c2ccccc2)CC1
Ki [2]: 61 nM

Oc1ccc(-c2ccc(CNCCc3c[nH]c4ccccc34)o2)cc1
Ki [1]: 7 nM
Ki [3]: 175 nM
Ki [4]: 292 nM
Ki [5]: 1620 nM
Ki (D(2) dopamine receptor): 757 nM
half-life at 1 h ([6]; liver microsomes): 6 min
microsomal CLint at 1 h (in vitro; liver microsomes): 222 µL/min/mg

CC1=CC=CN2C(=O)C3C=C(S(=O)(=O)c4ccccc4)C(=N)N(Cc4ccc(F)cc4)C3N=C12 (centres undefined)
Ki [2]: 594 nM

COc1ccc2[nH]c(C)c(CCNCc3ccc(-c4ccc(O)cc4)o3)c2c1
Ki [1]: 21 nM
Ki [3]: 42 nM
Ki [5]: 5320 nM
Ki (D(2) dopamine receptor): 167 nM
half-life at 1 h ([6]; liver microsomes): 8 min
microsomal CLint at 1 h (in vitro; liver microsomes): 184 µL/min/mg

Oc1ccc(-c2ccc(CNCCc3c[nH]c4ccc(Cl)cc34)o2)cc1
Ki [1]: 60 nM
Ki [3]: 33 nM
Ki [4]: 431 nM

CC(=O)Oc1ccc(-c2ccc(CNCCc3c[nH]c4ccccc34)o2)cc1
Ki [1]: 1460 nM

COc1ccc2[nH]cc(CCNCc3ccc(-c4cc(Cl)cc(Cl)c4)o3)c2c1
Ki [1]: 210 nM

O=[N+]([O-])c1ccc(-c2ccc(CNCCc3c[nH]c4ccccc34)o2)cc1
Ki [1]: 774 nM

COc1cccc2[nH]cc(CCNCc3ccc(-c4ccc(O)cc4)o3)c12
Ki [1]: 14 nM
Ki [3]: 131 nM
Ki [4]: 732 nM
Ki [5]: 2100 nM
Ki (D(2) dopamine receptor): 178 nM

COc1cccc(-c2ccc(CNC(C)Cc3cn(C)c4ccccc34)o2)c1 (centres undefined)
Ki [1]: 1030 nM

CC(Cc1c[nH]c2ccccc12)NCc1ccc(-c2ccc(O)cc2)o1 (centres undefined)
Ki [1]: 475 nM

Oc1ccc(-c2ccc(CNCCc3c[nH]c4cc(F)ccc34)o2)cc1
Ki [1]: 2 nM
Ki [3]: 96 nM
Ki [4]: 202 nM
Ki [5]: 2730 nM
Ki (D(2) dopamine receptor): 446 nM

COc1ccc2occ(CCNCc3ccc(-c4ccc(O)cc4)o3)c2c1
Ki [1]: 1700 nM

COc1cccc2[nH]cc(CCNCc3ccc(-c4ccccc4)o3)c12
Ki [1]: 109 nM

Cc1nc(N2CCCN(C)CC2)c2c3c(sc2n1)CCC3
Ki [2]: 198 nM

COc1ccc(-c2ccc(CNCCc3c[nH]c4ccccc34)o2)cc1OC
Ki [1]: 693 nM

COc1cccc(-c2ccc(CNCCc3c[nH]c4cccc(OC)c34)o2)c1
Ki [1]: 247 nM

CCc1cc2c(N3CCN(C)CC3)nc(C)nc2s1
Ki [2]: 316 nM

c1coc(-c2ccc(CNCCc3c[nH]c4ccccc34)o2)c1
Ki [1]: 419 nM

COc1ccc2[nH]cc(CCN(C)Cc3ccc(-c4ccc(O)cc4)o3)c2c1
Ki [1]: 199 nM
half-life at 1 h ([6]; microsomes): 10 min
microsomal CLint at 1 h (in vitro; microsomes): 138 µL/min/mg

COc1cc2c(cc1OC)C(=O)C(CC1CCN(Cc3ccccc3)CC1)C2 (centres undefined) [DONEPEZIL]
half-life at 1 h ([6]; microsomes): 96 min
microsomal CLint at 1 h (in vitro; microsomes): 14.4 µL/min/mg

COc1cccc(-c2ccc(CNCCc3c[nH]c4ccc(OC)cc34)o2)c1
Ki [1]: 76 nM
Ki [3]: 216 nM
Ki [4]: 91 nM
Ki [5]: 871 nM

Clc1cc(Cl)cc(-c2ccc(CNCCc3c[nH]c4ccccc34)o2)c1
Ki [1]: 266 nM

COc1cccc(-c2ccc(CNCCc3cn(C)c4ccccc34)o2)c1
Ki [1]: 556 nM

COc1ccc2[nH]cc(CCNCc3ccc(-c4cccc(O)c4)o3)c2c1
Ki [1]: 55 nM
Ki [3]: 29 nM
Ki [4]: 64 nM
Ki [5]: 3150 nM
Ki (D(2) dopamine receptor): 391 nM

CC(C)Oc1cccc(-c2ccc(CNCCc3c[nH]c4ccccc34)o2)c1
Ki [1]: 486 nM

c1ccc2c(CCNCc3ccc(-c4ccc5c(c4)OCO5)o3)c[nH]c2c1
Ki [1]: 220 nM

COc1ccc2[nH]cc(CCNCc3ccc(-c4cnc5ccccc5c4)o3)c2c1
Ki [1]: 101 nM
Ki [3]: 843 nM
Ki [4]: 1050 nM
Ki [5]: 9860 nM
Ki (D(2) dopamine receptor): 1020 nM

Oc1ccc(-c2ccc(CNCCc3c[nH]c4ncccc34)o2)cc1
Ki [1]: 531 nM

CN(CCc1c[nH]c2ccccc12)Cc1ccc(-c2ccccc2)o1
Ki [1]: 61 nM
Ki [3]: 199 nM
Ki [4]: 775 nM
Ki [5]: 525 nM
Ki (D(2) dopamine receptor): 368 nM

CN1C=C2C(NC(=S)NC2c2ccc(F)cc2)/C(=C\c2ccc(F)cc2)C1 (centres undefined)
Ki [2]: 596 nM

COc1cccc2[nH]cc(CCNCc3ccc(-c4ccc(F)cc4)o3)c12
Ki [1]: 132 nM
